Values quoted from earlier work as cited in patent US11220528B2, “Compositions and methods for treating pulmonary hypertension” (Marshall University Research Corporation, priority 2017, dated 2022).

Conditions: background statement

half-life: 3 to 5 min
Structure (SMILES): CCCCC[C@H](O)/C=C/[C@@H]1[C@H]2C/C(=C/CCCC(=O)O)O[C@H]2C[C@H]1O [Epoprostenol]
